Tests used:
[1] = tested on: luciferase reporter gene driven by the PAI-1 promoter; assay: Luciferase activity assay, MLECs-clone 32; type: cell-based, mink
Procedure: (A, B, C, D, E, F) Cells were treated with 50 μg/ml cholesterol (A, B, C, D) and 50 μg/ml LDL (D) at 37° C. for 1 hr or with 1 μM fluvastatin or lovastatin (E) or several concentrations of fluvastatin (F) at 37° C. for 16 hr and then further incubated with increasing concentrations (as indicated) of TGF-β1 (A, B, C, E) or 50 pM TGF-β1 (D,F) for 2 hr. Northern blot analysis of PAI-1 and G3PDH was performed. A representative of a total of three analyses is shown (a). The relative intensities of the transcripts were quantified with a PhosphoImager. The ratio of the relative intensities of PAI-1 and G3PDH transcripts in cells treated without TGF-β1 and cholesterol, LDL or statins on the blot was taken as 1 fold or 100% of PAI-1 expression. The quantitative data from three independent analyses is shown (b). […] (G) Mv1Lu cells stably expressing a luciferase reporter gene driven by the PAI-1 promoter (MLECs-clone 32) were treated with increasing concentrations (as indicated) of cholesterol at 37 EC for 1 hr (a) or with 1 μM lovastatin at 37° C. for 16 hr (b) and then further incubated with 50 pM TGF-β for 7 hr. The luciferase activity in cells treated without cholesterol was taken as 100% (a). […] (H) Cells were incubated with 0.0625 and 0.125 pM TGF-β1 in the presence of increasing concentrations of cholesterol, as indicated. […] The experiments were carried out in triplicate.

TβR-I and TβR-II [2] = assay: 125I-TGF-β1 affinity labeling, BAEC; type: cell-based, bovine
Procedure: (B, C, D, E) Cells were treated with increasing concentrations of cholesterol in the presence (C) and absence (B, D, E) of 0.2% β-CD, as indicated. After 1 hr at 37° C., ^125I-TGF-β1 affinity labeling of TβR-I and TβR-II in cells was performed at 0° C. ^125I-TGF-β1 affinity-labeled TβR-I and TβR-II were analyzed by 7.5% SDS-PAGE and autoradiography or quantified with a PhosphoImager. A representative of a total of three analyses is shown (top). The bracket indicates the locations of ^125I-TGF-β affinity-labeled TβR-I and TβR-II. The relative intensities of ^125I-TGF-β1 affinity-labeled TβR-I and TβR-II in cells treated without cholesterol were taken as 100%. The quantitative data from three analyses is shown (bottom).
(§1) (A, B, C, D, E, F) Cells were treated with LDL (50 μg protein/ml), VLDL (5 μg protein/ml), HDL (50 μg protein/ml), lipoprotein (a) (10 μg/ml), fluvastatin (F; 1 μM), lovastatin (L; 1 μM), nystatin (Nys; 25 μg/ml), β-CD (β-CD; 8 mM), cholest-4-en-3-one (3-one; 50 μg/ml) or cholesterol (Chol; 50 μg/ml) alone or combination of two. After 1 hr at 37° C. or 16 hr at 37° C. (for fluvastatin and lovastatin), ^125I-TGF-β1 affinity labeling of cell-surface TGF-β receptors was performed at 0° C. ^125I-TGF-β1 affinity-labeled TβR-I and TβR-II were analyzed by 7.5% SDS-PAGE and autoradiography. The relative intensities of TβR-I and TβR-II were quantified with a PhosphoImager. The ratio of ^125I-TGF-β1 binding to TβR-II and TβR-I were estimated. The numbers above the lane sequence denote the ratio of TβR-II/TβR-I.
After cross-linking, cell lysates were analyzed by 7.5% SDS-PAGE and autoradiography or quantified by a PhosphoImager. For all experiments, cholesterol or cholesterol derivatives were prepared as the stock solution with a concentration of 25 mg/ml in ethanol. The final concentration of ethanol in the medium was 0.2% (by vol.).

TβR-I and TβR-II [3] = assay: 125I-TGF-β1 affinity labeling, CHO-K1 cells; type: cell-based, Chinese hamster; settings: 1 μM, 37° C. 16 hr, 0.12 untreated
Procedure: as §1
After cross-linking, cell lysates were analyzed by 7.5% SDS-PAGE and autoradiography or quantified by a PhosphoImager. For all experiments, cholesterol or cholesterol derivatives were prepared as the stock solution with a concentration of 25 mg/ml in ethanol. The final concentration of ethanol in the medium was 0.2% (by vol.). […]

| Structure (SMILES) | effect of cholesterol alone on TGF-β-stimulated luciferase activity ([1]; 25 ug/ml, without lovastatin) | suppression of TGF-β1-stimulated luciferase activity ([1]; 50 μg/ml, 50 pM TGF-β1) [%] | luciferase activity ([1]; cells treated with cholesterol (25 ug/ml), lovastatin and TGF-β1) [A.U] | effect on the stimulatory effect of lovastatin on TGF-β-stimulated luciferase activity ([1]; cholesterol 25 ug/ml for 1 hr prior to TGF-β stimulation) | increase of 125I-TGF-β1 binding to TβR-I (TβR-I and TβR-II [2]; 50 μg/ml, 1 hr, BAEC) [fold] | ratio of TβR-II/TβR-I (TβR-I and TβR-II [2]; 50 μg/ml, 1 hr, BAEC, 3.5 untreated) | effect on binding of 125I-TGF-β1 to TβR-II (TβR-I and TβR-II [2]; increasing concentrations, 1 hr, BAEC) | enhancement of TGF-β1-stimulated luciferase activity ([1]; 1 μM, 16 hr, 50 pM TGF-β1) [fold] | ratio of TβR-II/TβR-I (TβR-I and TβR-II [2]; 1 μM, 37° C. 16 hr, BAEC cells, 2.47 untreated) | ratio of TβR-II/TβR-I (TβR-I and TβR-II [3]) |
| --- | --- | --- | --- | --- | --- | --- | --- | --- | --- | --- |
| CC(C)CCC[C@@H](C)[C@H]1CC[C@H]2[C@@H]3CC=C4C[C@@H](O)CC[C@]4(C)[C@H]3CC[C@]12C [cholesterol] | did not alter | 40 | 2314±120 | abolished | ~2.5 | 1.4 | did not significant alter | – | – | – |
| CC[C@H](C)C(=O)O[C@H]1C[C@@H](C)C=C2C=C[C@H](C)[C@H](CC[C@@H]3C[C@@H](O)CC(=O)O3)[C@H]21 [lovastatin, reference compound] | – | – | – | – | – | – | – | 1.7 | 2.6 | 0.18 |

Reference: patent publication US8946201B2, “Methods for inhibiting TGF-β” (Saint Louis University, priority 2007, dated 2015)
